Columns and labels:
[1] = system: Patient derived GSC (GB5); assay: Effect of compound treatment on GSC phenotype (adhesion, morphology), GB5; format: cell-based, human; conditions: GB5, 10 uM, three days
Text: FIG. 1: phase contrast images of GB5 morphology untreated (CTL DMSO) or treated with the indicated compound (“Cpd” denotes compound) at the indicated concentration. Control cells grow as non-adherent spheroids composed of numerous GSC. When differentiated the cells become adherent and spread on the culture dish.
B—Cell culture: Patient-derived cells GB5 were isolated from surgical resection of human primary GBM provided by the department of neurosurgery of the University Hospital of Nice. TG6 (patient-derived cell from primary GBM) and HNNSC25 (Human Normal Neural Stem Cells) have been provided by Dr Hervé Chneiweiss, University of Pierre and Marie Curie, Paris. The resulting primary cultures (GB5, TG6, HNNSC25) were grown in NS34+ medium containing EGF and bFGF (DMEM-F12 1/1 ratio, 10 mM glutamine, 10 mM Hepes, 0.025% Sodium bicarbonate, N2, G5, and B27).
Patient derived GSC (GB5) were treated with growing concentration of Compounds 9a-b and 18a-b (10 to 100 uM) during three days). […] Similar results have been obtained with TG6.

GB5 cells = assay: Clonal expansion (clonal proliferation) of GB5; format: cell-based, human
Description: FIG. 2: Compounds 9a-b and 18a-b effect on stemness marker expression, clonal expansion and mitosis in GB5 cells. (A) NESTIN expression was assessed by immunofluorescence in GB5 treated with increasing amount of Compounds 9a-b and 18a. The number of NESTIN positive cells was counted for each treatment and express as percentage of the control (100%). The results are the meaning of at least two separate experiments. […] (C) Clonal expansion analysis was performed with GB5 cells as described in the material and method section. Two and three weeks later, the number of spheroids is counted and reported as percentage of the initial number of cells in the well. The results are the meaning of a minimum of two separate experiments. (D) The number of mitosis in the culture was determined by the detection of the number of cells positive for histone H3 phosphorylated on ser-10 (H3-ser10). H3-ser10 expression was assessed by immunofluorescence in GB5 treated with increasing amount of Compounds 9a-b and 18a. The number of positive cells was counted for each treatment and express as percentage of the control (100%). The results are the meaning of at least two separate experiments.
Clonal proliferation: TG6 and GB5 were seeded at 10 cells/well in 96 wells plate in NS34+ medium alone or containing growing concentration of Compounds 9a-b and 18a-b. Immediately after seeding, the real number of cells in the well was determined by direct count. Two and three weeks later, the resulting number of spheroids in each well was evaluated by a direct count. The % of clonal efficiency was calculated in dividing […].
It was further investigated the effects of selected compounds on GSC clonal expansion as well as their capacity of mitosis (FIGS. 2B and C). Compounds 9a-b and 18a treatment altered GSC clonal expansion and mitosis. The most efficient inhibition of clonal expansion was provided by Compound 9a treatment (IC50<10 uM) while both Compounds 9a-b were the most efficient for mitosis inhibition (IC50<10 uM) (FIGS. 2C and D).

[2] = system: GSC expressing a luciferase gene (GB1-luc) brain tumors; assay: Orthotopic GB1-luc xenograft, treatment of already formed tumors; format: in vivo, nude mice; conditions: 7.5 mg/kg three times a week, live imaging, vs DMSO; 11th week P value=0,017
Description: FIG. 3: Nude mice were orthotopically xenografted by luminescent patient derived GSC. (A-B) Two weeks following injections, mice were intraperitoneally injected with 10 mg/kg (n=4), 7.5 mg/kg (n=4) or 5 mg/kg (n=4) of Compound 9a or vehicle alone as control (ctl n=10). A) graphical representation of the average of tumor growth in the control group (n=10) and in each Compound 9a treated groups. B) Survival of the whole population of mice of the untreated and treated groups were compared using a log rank test according to Kaplan Meier method. (R command, see World Wide Web: biostatgv.sentiweb.fr/?module=tests/surv). The solid line represents the survival rate of control untreated mice. The dotted line represents the survival rate of mice treated by compound 9a. C) Mice treatment with compound 9a when the tumors were already formed. Tumor growth representation in mice, treated either with DMSO (control: -♦-) or Compound 9a (-▪-). Tumor growth was controlled every week by live imaging. The solid line represents the tumor growth in control untreated mice. The dotted line represents the tumor growth in mice treated by compound 9a.
To further determine whether Compound 9a might also alter tumor growth of tumors that were already formed before treatment, 50000 GSC expressing a luciferase gene (GB1-luc) for luminescent live imaging were injected in the brain of 12 nude mice. […]

human kidney (NHEK) = assay: XTT toxicity assay on human kidney cells; format: cell-based
Description: (§1) FIG. 4: Determination of compound toxicity on GSC and normal human cells. (A) GB5 were incubated with growing concentration of Compounds 9a-b and 18a. (B) human normal neural stem cell (NNSC), human normal kidney cells (NHEK), human normal hepatocytes (HEPRG) and (C) human endothelial cells (HUVEC) were treated with growing concentration of Compound 9a. 7 days later, the cells were subjected to an XTT assays as described in the method section. The results are the meaning of at least two separate experiments. Cell death was confirmed by trypan blue staining (not shown).
HEK293 (human embryonic kidney cell) were grown in DMEM supplemented with glutamax and 10% foetal calf serum.
(§2) V—Toxicity tests: NNSC, GB5, TG6, HEK293, and HepaRG, HUVEC were seeded at 2000 cells/well in 96 wells plate in their respective culture mediums alone or containing growing concentration from 10 to 500 uM of Compounds 9a-b. Cultures were incubated 4 days and the cellular toxicity has been evaluated by XTT assays. Cell viability has been also assessed by counting living and dead cells with trypan blue staining.
(§3) XTT assays allows, through cell metabolism measurement, to determine a cytotoxic/cytostatic effects. Compounds 9a-b and 18a were tested for their eventual toxicity by XTT assays as described in the material and method section. […]

[3] = system: human endothelial cells (HUVEC); assay: XTT toxicity assay on human endothelial cells; format: cell-based
Description: as §1, §2
as §3, with “section. At the working concentrations 10 to 25 uM, the compounds are not toxic for GSC (FIG. 4A).” for “section.”

NCCCCNCCCNC(=O)c1csc(-c2csc(CCNC(=O)CCc3cn(CC4OC(OC5C(O)C(N)CC(N)C5OC5OC(CN)C(O)C(O)C5N)C(O)C4OC4OC(CN)C(O)C(O)C4N)nn3)n2)n1 (centres unmarked) [Compound 9a, N-(3-((4-Aminobutyl)amino)propyl)-2′-(2-(3-(1-methyl-1H-1,2,3-triazol-4-yl)propanamido)ethyl)-[2,4′-bithiazole]-4-carboxamide-neomycin]
adhesion and changes in GSC morphology [1]: induced adhesion and changes in GSC morphology
GSC clonal expansion (GB5 cells; GB5, spheroids counted after two and three weeks): altered
IC50 (GB5 cells; Homo sapiens, GB5, read-out: inhibition of clonal expansion IC50): < 10 µM
growth of tumors already formed before treatment [2]: repressed tumor growth
toxicity (XTT) (human kidney (NHEK); 100 uM and above): toxic
toxicity (XTT) (human kidney (NHEK); between 10 to 50 uM): not toxic
toxicity (XTT) ([3]; 100 uM and above): toxic
toxicity (XTT) ([3]; between 10 to 50 uM): not toxic
